Measured values reported in publication doi:10.1101/2025.03.13.643086, “Granzyme-targeting quenched activity-based probes for assessing tumor response to immunotherapy” (bioRxiv, 2025).

System: GzmB activity in 4T1 tumors
Format: in vivo, mouse
Experimental: Figure 5. In vivo imaging of GzmB activity in mouse tumor models. (A) Schematic illustration of the timeline of immunotherapy and real-time NIRF-imaging. (B) Measurement of tumor growth comparing immunotherapy (ICB combination)-treated vs. untreated mice. Data points are shown as mean with SD. (C) Whole animal 2D fluorescence images of immunotherapy-treated mice obtained after 2, 4, 8 and 24 h post-injection at Ex/Em: 640/680 nm. […] (D) Quantification of in vivo NIRF signals in the tumors. […] (F) Quantification of ex vivo NIRF signals in the organs (normalized to spleen). […] (G) Immunoblotting analysis of GzmB expression in tumor homogenates. Briefly, pieces of tumors were transferred to a flask containing 1 mL RIPA lysis buffer on ice and constantly grinded for 2 min. Homogenates were collected by centrifugation and 20 μg of proteins were analyzed by SDS-PAGE and immunoblotting. (H) Representative confocal microscopy images of tumor sections stained with DAPI (blue) and CD8α (green)/GzmB (yellow) antibodies and Cy5 (red) detection. (I) Fraction (%) of CD8+ cells in the tumors analyzed by flow cytometry. (J) Mean fluorescence intensity (MFI) of Cy5 signals determined by flow cytometry after dissociated tumors were treated with 10 (5 μM) for 2 h at 37 °C.
3-5 mice/group. For all studies, mice were monitored by daily observation and serial tumor measurements and body weights.
Mice were treated with 20 mg/kg BEC i.v., 10 mg/kg anti-PD1 i.p., 5 mg/kg anti-CTLA4 i.p. or a combination of 10 mg/kg anti-PD-1 and 5 mg/kg anti-CTLA4. All the treatments were administered into living mice bearing 4T1 tumor every three days for three times (q3dx3). Dosing was administered at 0.01 ml/g body weight. On day 9 post-treatment, the mice were injected with 2 nmol/g GzmB qABP i.v., followed by fluorescence imaging at 2, 4, 8, and 24 h. Following the last imaging time point, mice were euthanized, and tissues were collected for ex vivo imaging.
E. In vivo and ex vivo fluorescence imaging (FLI)
All fluorescence imaging (FLI) were performed using Xenogen IVIS Spectrum (Revvity Health Sciences, Inc., Hopkinton, Massachusetts), which was previously owned by PerkinElmer. Prior to in vivo or ex vivo FLI, quality control of the IVIS system was performed with XFM-2X fluorescent phantom mouse (Revvity Health Sciences, Inc., Hopkinton, Massachusetts). The total radiant efficiency of AF680 phantom was 1.44 x 109 ± 5.7 x 107 at 40% threshold for the entire study.
Both in vivo and ex vivo FLI of mice including dye phantom was performed with Ex/Em: 640/680 nm. The wavelength difference between excitation and emission was large enough to prevent signal contamination by mixing. The maximum exposure time was fixed at 120 seconds to avoid background noise. In vivo imaging used 8 binning, 2 f-stop, and 1.5 cm sample height, whereas ex vivo imaging used 8 binning, 2–4 f-stop, and 0.5 cm sample height. The quantified data are presented as radiant efficiency or normalized radiant efficiency by area. […]
Fixed/Permeabilized […]
cells were resuspended 100 µL 1x intracellular staining perm wash buffer and incubated with FITC-conjugated CD8 antibody (BioLegend #100706) at 0 °C for 1 h. After centrifugation, cell pellets were washed with 1x intracellular staining perm wash buffer (twice) and resuspended in the appropriate amount of cell staining buffer (BioLegend # 420201) and analyzed with flow […]

CC[C@H](C)[C@H](NC(=O)CCCCCN1/C(=C/C=C/C=C/C2=[N+](CC)c3ccc(S(=O)(=O)O)cc3C2(C)C)C(C)(C)c2cc(S(=O)(=O)O)ccc21)C(=O)N[C@@H](CCC(=O)O)C(=O)N1CCC[C@H]1C(=O)NC(CS(=O)(=O)O)P(=O)(Oc1ccc(CCNC(=O)C2CCN(S(=O)(=O)c3ccccc3-c3c4ccc(=[N+]5CCc6ccccc65)cc-4oc4cc(N5CCc6ccccc65)ccc34)CC2)cc1)c1ccccc1 (some centres unmarked) [Compound 10, Cy5-IEPCya^PhP-QSY21]
in vivo NIRF signal at 2 h, mouse #61 (brightest) (12.5 nmol/100 μL i.v., 2 h post-injection, ICB combination-treated mouse): 7.26x10^9 p s^−1 cm^−2 sr^−1 | time post-injection of brightest NIRF signal within tumors (50 nmol i.v., imaged at 2, 4, 8 and 24 h): 2 h | tumor-to-background ratio (TBR), ex vivo, normalized to spleen, mouse #57 (50 nmol i.v., organs harvested 24 h post-injection): 15.18 | in vivo fluorescence signal in tumor at 2 h, mouse #57 (highest) (50 nmol/100 μL i.v., 2 h post-injection, ICB combination-treated mouse): 4.02x10^10 p s^−1 cm^−2 sr^−1 | clearance route of excess probe (second highest signals in bladder (2 h in vivo) and kidneys (24 h ex vivo)): cleared through the renal pathway
